The test system of data set [1] is calf thymus DNA. In words: Viscosity evaluation of DNA. As to conditions: (η/ηo)^1/3 vs binding ratio r. An excerpt:
Viscosity evaluation. The binding interaction of the gold(III) porphyrins can be further investigated by examining the change of DNA viscosity upon binding of the metalloporphyrin. If the metalloporphyrin binds to DNA by intercalation, this would cause chain elongation, unwinding and stiffening of the DNA helix as a consequence of untwisting of the base pairs and helical backbone needed to accommodate the intercalator.
For comparison, the viscosity profiles for ethidium bromide (intercalator) and Hoechst 33342 (minor groove binder) are also shown is FIG. 10.

Data set [2] relates to plasmid DNA (pDR2). In words: Restriction endonuclease (ApaI) fragmentation assay. The source says: Binding of the metalloporphyrin onto a duplex DNA such as plasmid DNA (pDR2) is expected to occupy the binding site of the restriction enzyme ApaI, thereby inhibiting the enzymatic DNA digestion. See Ikeda et al., J. Am. Chem. Soc. 104:296-297 (1982).
After ApaI digestion, (lane B), three bands corresponding to 6.6, 4.4 and 2.0 kbp were observed.

Data set [3] relates to Human Oral Epidermoid Carcinoma (multi-drug resistance, KB-V-1). The data set is described as follows: MTT cytotoxicity, KB-V-1. It is filed as cell-based. As to conditions: MTT, growth inhibition, multi-drug resistant. An excerpt: Human promyelocytic leukemia (HL-60), human hepatocellular carcinoma (HepG2), Human cervix epitheloid carcinoma cells (HeLa) and human oral epidermoid carcinoma cells (KB-3-1), were obtained from American Type Culture Collection (ATCC) (Rockville, Md.). The multi-drug-resistant variant KB-V1 cell line was obtained by stepwise selections for vinblastine resistance as described by Shen et al., J. Biol. Chem. 261:7762-7770 (1986)], and was generously provided by Dr Michael Gottesman (NIH, Bethesda, Md.). Human nasopharyngeal carcinoma cells (SUNE1 and its cisplatin resistance variant, CNE1) were derived from poorly differentiated NPC in Chinese patients as described by Gu et al., Chin. J. Cancer 2:270-272 (1983), and were generously provided by Dr S. W. Tsao (The University of Hong Kong, Hong Kong, PRC). Cell culture flasks and 96 well microtitre plates were from Nalge Nunc hit. Culture medium, other medium constituents and phosphate buffered saline (PBS) were obtained from Gibco BRL (Rockville, Md.). Cell Proliferation Kit I (MTT) was purchased from Roche (Mannheim, Germany).
The anti-cancer activities of the gold(III) porphyrin complexes were evaluated toward some established human cancer cell lines: promyelocytic leukemia (HL-60), hepatocellular carcinoma (HepG2), cervix epitheloid carcinoma (HeLa), epidermoid carcinoma (KB-3-1) and its multi-drug resistant variant (KB-V1), nasopharyngeal carcinoma (SUNE1) and its cisplatin-resistant variant (CNE1).

Data set [4] is described as follows: UV-vis stability study in buffer solution with and without glutathione. It is filed as physicochemical. As to conditions: room temperature. On the procedure: UV-vis experiments. For UV-vis analysis, the absorption spectra of 2.5 μM (7 nmoles) of all studied complexes in (1:19) MeCN/Tris buffer solution was monitored over 72 h. […] The gold(III) solution was monitored over 48 h at room temperature and less than 10% decrease in the Soret band intensity was observed without any significant spectral shift in both the Soret and Q-bands.
Yet, no significant spectral shift and formation of new absorption bands were observed.
This finding confirms the excellent solution stability of 1j and 1k in physiologically related medium.
The precipitates are soluble in common organic solvent such as THF, CHCl3 and DMSO but insoluble in aqueous solution.

Data set [5] concerns the target T1, HIV-1 reverse transcriptase (Human immunodeficiency virus type 1 group M subtype B, UniProt P04585).
T1 construct: treatment of HIV-1 RT in Lysis buffer (2 ng, 128.7 μL) with Complex 1j
The data set is described as follows: HIV-1 reverse transcriptase activity, ELISA method. As to conditions: ELISA; mean ± SE of at least three determinations; read-out: IC50 HIV-1 RT. It is filed as biochemical. As to the method:
HIV-1 reverse transcriptase activities were measured by an ELISA method (see Eberle et al, J. Virol. Methods, 40:347-356 (1992) performed by incubating the enzyme with digoxigenin-labeled deoxyuridin-5′-triphosphate (dUTP) and the biotin-labeled analogue during reverse transcription starting from the template/primer hybrid poly(A)•oligo(dT)15. After reverse transcription, the newly synthesized DNA was immobilized onto streptavidin-coated ELISA wells, and the incorporation of the dioxigenin-labeled dUTP was assayed by chemiluminescence method. For example, treatment of HIV-1 RT in Lysis buffer (2 ng, 128.7 μL) with Complex 1j (1.3 μL of […] stock solution) dissolved in TBS at 37° C. produced significant RT activity inhibition (˜95%) after 30 min incubation.
In general terms: ELISA stands for enzyme-linked immunosorbent assay.

For data set [6], the system named is human lung fibroblast cells (CCD-19Lu). As to conditions: MTT. As to the method:
Acute cytotoxicities of the gold(III) complexes to normal cells were evaluated using human lung fibroblast cells (CCD-19Lu) as model cell line. The percentages of cell survival at various doses of the gold complexes were determined by the MTT assay, and the toxicities profiles are shown in FIG. 15.

Data set [7] has as its system Human Promyelocytic Leukemia (HL-60). In words: MTT cytotoxicity, HL-60. It is filed as cell-based. As to conditions: growth inhibition.

“And” between values parts separate entries of the source, which are not always exact repeats. Equal entries are not always repeated.

By IC50 is commonly meant the concentration needed to halve the response being measured. On to `C1=Cc2nc1c(-c1ccccc1)c1ccc([n-]1)c(-c1ccccc1)c1nc(c(-c3ccccc3)c3ccc([n-]3)c2-c2ccccc2)C=C1.[Au+3].[Cl-]` [Complex 1a], for which the “change in viscosity of the DNA” value in data set [1] is recorded as “no appreciable change in viscosity of the DNA”. The “effect on ApaI digestion of pDR2” value in data set [2] (Complex:DNA = 0.1:1 (lane C)) is “partial DNA digestion was observed”; in data set [2] (Complex:DNA bp = 1:1 (lane D)), “inhibition of the DNA digestion was observed”. Besides, the concentration for half-maximal inhibition (IC50) in data set [3] was 120 nM; in data set [5] it was 28.4 µM and 28 µM; in data set [6] (read-out: IC50 CCD-19Lu, mean ± SE of at least three determinations), 910 ± 210 nM; in data set [7] it was 730 nM. In addition, in data set [4] (2.5 μM in Tris buffer/MeCN (19:1), 48 h), the “decrease in the Soret band intensity” value was “less than 10%”. Moreover, in data set [4] (glutathione 2 mM in Tris buffer/MeCN=19:1, 48 h), the “decrease of the Soret band intensity” value is listed as “about 27%”. Moreover, the cell death in data set [6] (CCD-19Lu, 2 μM) is listed as 90%.

These data come from patent US20040063681A1, “Methods for using gold (III) complexes as anti-tumor and anti-HIV agents” (priority 2002, published 2004).
